Patent US20190152946A1, “Novel Compounds” (GlaxoSmithKline Intellectual Property Development Limited, priority 2016, published 2019)

Key:
[1] = target: T1, GAK (Homo sapiens, UniProt O14976); experiment: Expression proteomics in THP-1 cells, GAK level; format: cell-based; conditions: GAK protein log2 fold change, 24 h, 1.0 μM
T1 construct: endogenous in cells; host or cells: THP-1
T1 sequence (O14976 1-1311): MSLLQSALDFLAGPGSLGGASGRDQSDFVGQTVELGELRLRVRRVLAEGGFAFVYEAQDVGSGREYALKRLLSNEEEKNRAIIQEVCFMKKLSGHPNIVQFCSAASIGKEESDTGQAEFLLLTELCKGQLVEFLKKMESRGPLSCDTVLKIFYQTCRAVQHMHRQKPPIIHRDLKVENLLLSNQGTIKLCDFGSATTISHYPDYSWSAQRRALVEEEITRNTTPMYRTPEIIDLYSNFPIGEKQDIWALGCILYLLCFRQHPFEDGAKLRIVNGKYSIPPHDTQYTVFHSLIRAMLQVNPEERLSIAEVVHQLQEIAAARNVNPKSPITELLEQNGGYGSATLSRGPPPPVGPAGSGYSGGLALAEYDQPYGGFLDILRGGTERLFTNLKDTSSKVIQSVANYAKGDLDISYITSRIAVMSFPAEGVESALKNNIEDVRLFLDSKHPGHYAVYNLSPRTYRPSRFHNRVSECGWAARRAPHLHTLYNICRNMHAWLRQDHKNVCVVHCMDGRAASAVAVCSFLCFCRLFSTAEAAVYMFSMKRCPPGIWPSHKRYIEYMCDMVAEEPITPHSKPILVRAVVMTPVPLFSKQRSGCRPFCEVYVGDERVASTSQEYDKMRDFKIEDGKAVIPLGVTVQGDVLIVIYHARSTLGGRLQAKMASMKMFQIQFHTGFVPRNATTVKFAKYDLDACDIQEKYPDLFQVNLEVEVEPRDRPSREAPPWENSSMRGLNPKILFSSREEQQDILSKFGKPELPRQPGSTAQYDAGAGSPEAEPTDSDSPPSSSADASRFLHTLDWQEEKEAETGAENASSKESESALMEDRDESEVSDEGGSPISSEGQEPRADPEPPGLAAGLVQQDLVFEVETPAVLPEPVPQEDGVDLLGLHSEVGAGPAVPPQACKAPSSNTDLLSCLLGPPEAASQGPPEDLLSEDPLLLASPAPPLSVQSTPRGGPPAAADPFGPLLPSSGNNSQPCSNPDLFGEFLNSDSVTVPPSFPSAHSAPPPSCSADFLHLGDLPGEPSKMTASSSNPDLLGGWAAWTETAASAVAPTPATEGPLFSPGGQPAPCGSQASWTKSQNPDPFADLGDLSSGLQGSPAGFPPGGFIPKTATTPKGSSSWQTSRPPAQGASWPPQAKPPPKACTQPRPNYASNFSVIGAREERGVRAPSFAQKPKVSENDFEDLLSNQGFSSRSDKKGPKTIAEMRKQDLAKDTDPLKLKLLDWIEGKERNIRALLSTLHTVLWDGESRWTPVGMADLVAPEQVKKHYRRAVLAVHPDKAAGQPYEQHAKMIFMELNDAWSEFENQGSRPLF
Protocol: (§1) THP-1 cells were seeded at a concentration of 3×10^6 cells in T175 flasks with 60 mL growth medium (RPM11640+10% FBS). […] of a 10× compound solution prepared in growth medium (DMSO), IAP PROTAC) was added and the cells were treated for the indicated time points (6 or 24 h) at 37° C., 5% CO2. For harvesting the cells were collected into falcon tubes on ice, centrifuged and washed twice in cold PBS (Life technologies). After the last washing step the supernatant was removed and the pellets were snap-frozen in liquid N2 and stored at −80° C. and lysed in 2% SDS for 3 min at 95° C. in a thermomixer (Thermo Fisher Scientific), followed by digestion of DNA with Benzonase at 37° C. for 1.5 h. Lysate was cleared by centrifugation an protein concentration in supernatant was determined by BCA assay.
(§2) Leukemia 25, 89-100 (2011).
(§3) Samples were dried in vacuo and resuspended in 0.05% trifluoroacetic acid in water. […]
(§4) Reporter ion intensities were read from raw data and multiplied with ion accumulation times (the unit is milliseconds) so as to yield a measure proportional to the number of ions;
(§5) Nat Biotech 29, 255-265 (2011). this measure is referred to as ion area Savitski, M. M. et al. Delayed Fragmentation and Optimized Isolation Width Settings for Improvement of Protein Identification and Accuracy of Isobaric Mass Tag Quantification on Orbitrap-Type Mass Spectrometers. […]

[2] = target: T2, RPS6KA1 (Homo sapiens, UniProt Q15418); experiment: Expression proteomics in THP-1 cells, RPS6KA1 level; format: cell-based; conditions: RPS6KA1 protein log2 fold change, 24 h, 1.0 μM
T2 construct: endogenous in cells; host or cells: THP-1
T2 sequence (Q15418 whole entry): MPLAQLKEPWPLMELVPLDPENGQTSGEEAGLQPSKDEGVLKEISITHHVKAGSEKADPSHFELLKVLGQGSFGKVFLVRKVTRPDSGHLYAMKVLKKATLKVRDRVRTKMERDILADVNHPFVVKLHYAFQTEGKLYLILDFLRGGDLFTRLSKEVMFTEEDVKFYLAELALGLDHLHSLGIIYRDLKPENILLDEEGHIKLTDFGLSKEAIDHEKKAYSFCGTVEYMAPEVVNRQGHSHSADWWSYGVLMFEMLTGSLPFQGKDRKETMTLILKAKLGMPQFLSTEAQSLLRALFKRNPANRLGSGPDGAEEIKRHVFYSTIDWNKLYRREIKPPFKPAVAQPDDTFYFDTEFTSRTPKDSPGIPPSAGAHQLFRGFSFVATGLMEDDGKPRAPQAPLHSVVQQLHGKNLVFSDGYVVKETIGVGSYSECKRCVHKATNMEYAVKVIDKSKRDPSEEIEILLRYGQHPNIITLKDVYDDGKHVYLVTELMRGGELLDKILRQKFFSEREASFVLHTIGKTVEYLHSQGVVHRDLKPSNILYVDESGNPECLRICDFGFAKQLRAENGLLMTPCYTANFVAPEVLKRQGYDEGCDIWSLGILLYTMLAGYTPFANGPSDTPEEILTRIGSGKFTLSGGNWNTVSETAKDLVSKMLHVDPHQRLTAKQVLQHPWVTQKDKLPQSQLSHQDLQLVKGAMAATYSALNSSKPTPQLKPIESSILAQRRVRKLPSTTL
Protocol: as §1, §2, §3, §4, §5

log2fc_IAP_24 h_1.0 μM_n1 ([1]; replicate n1): −2.02
log2fc_IAP_24 h_1.0 μM_n2 ([1]; replicate n2): −2.39
log2fc_IAP_24 h_1.0 μM_n1 ([2]; replicate n1): −1.21
log2fc_IAP_24 h_1.0 μM_n2 ([2]; replicate n2): −1.24
SMILES: CNC(=O)c1ccccc1Nc1nc(Nc2ccc(N3CCN(CCOCCOCCOCCOc4ccc5c(c4)CN(C(=O)[C@@H](NC(=O)[C@H](C)NC)C(C)(C)C)[C@H](C(=O)N[C@@H]4CCCc6ccccc64)C5)CC3)cc2)ncc1Cl [IAP, (S)-7-(2-(2-(2-(2-(4-(4-((5-Chloro-4-((2-(methylcarbamoyl)phenyl)amino)pyrimidin-2-yl)amino)phenyl)piperazin-1-yl)ethoxy)ethoxy)ethoxy)ethoxy)-2-((S)-3,3-dimethyl-2-((S)-2-(methylamino)propanamido)butanoyl)-N-((R)-1,2,3,4-tetrahydronaphthalen-1-yl)-1,2,3,4-tetrahydroisoquinoline-3-carboxamide]
